The values below come from patent US20260285875A1, “INHIBITORS OF PARG” (858 Therapeutics, Inc., priority 2023, published 2026).

Where only a bound is given, the exact number is not on record here.

T1 sequence (Q86W56 whole entry): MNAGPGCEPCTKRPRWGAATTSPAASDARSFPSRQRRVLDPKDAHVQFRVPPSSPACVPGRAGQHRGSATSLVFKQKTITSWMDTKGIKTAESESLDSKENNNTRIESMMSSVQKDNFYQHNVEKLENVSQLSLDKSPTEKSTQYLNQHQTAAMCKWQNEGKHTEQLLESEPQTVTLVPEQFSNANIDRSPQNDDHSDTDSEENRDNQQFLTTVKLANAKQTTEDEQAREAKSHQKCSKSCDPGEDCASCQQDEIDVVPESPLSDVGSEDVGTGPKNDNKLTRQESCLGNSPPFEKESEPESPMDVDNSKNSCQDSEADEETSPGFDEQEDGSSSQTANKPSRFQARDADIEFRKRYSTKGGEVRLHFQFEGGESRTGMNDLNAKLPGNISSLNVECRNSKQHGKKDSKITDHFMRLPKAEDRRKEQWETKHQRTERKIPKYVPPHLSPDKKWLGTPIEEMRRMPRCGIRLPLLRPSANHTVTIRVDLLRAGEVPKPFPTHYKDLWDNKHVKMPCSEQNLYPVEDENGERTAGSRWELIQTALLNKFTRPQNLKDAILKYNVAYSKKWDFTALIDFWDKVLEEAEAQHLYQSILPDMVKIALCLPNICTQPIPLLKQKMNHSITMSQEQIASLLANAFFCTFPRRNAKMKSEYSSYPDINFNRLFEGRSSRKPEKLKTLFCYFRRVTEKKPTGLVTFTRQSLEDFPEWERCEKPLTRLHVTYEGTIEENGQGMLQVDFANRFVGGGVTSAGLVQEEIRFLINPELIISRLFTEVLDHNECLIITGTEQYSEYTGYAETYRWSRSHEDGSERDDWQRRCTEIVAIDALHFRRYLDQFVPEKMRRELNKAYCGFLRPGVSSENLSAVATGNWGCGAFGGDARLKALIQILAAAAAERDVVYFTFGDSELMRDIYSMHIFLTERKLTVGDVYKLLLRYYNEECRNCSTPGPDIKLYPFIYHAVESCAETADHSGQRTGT

This test concerns the target T1, cellular PARG (Homo sapiens, UniProt Q86W56).
T1 construct: endogenous in cells; host or cells: HeLa
As to the kind of experiment: Nuclear PAR accumulation assay (immunofluorescence high-content imaging, MMS-treated HeLa cells). To be noted: 1 hour compound then MMS 50 μg/mL for an additional hour. It is filed as cell-based. Put shortly: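 HeLa cells pretreated with compound for 1 h at 37° C, then given 50 μg/mL MMS for another hour. After methanol fixation, PAR was immunostained with DAPI nuclear counterstain; per-nucleus intensity and percent PAR-positive cells were imaged at 20× (≥1,000 cells/well). IC50 from four-parameter logistic fit.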
In turn, `[2H]C([2H])(c1cnn(C)c1)N1C(=O)c2cc(S(=O)(=O)NC3(C)CC3)ccc2N2C1=NC[C@H]2C#Cc1nccnc1OC` [Example 249, (R)-1-((3-methoxypyrazin-2-yl)ethynyl)-4-((1-methyl-1H-pyrazol-4-yl)methyl-d2)-N-(1-methylcyclopropyl)-5-oxo-1,2,4,5-tetrahydroimidazo[1,2-a]quinazoline-7-sulfonamide] returned an IC50 of less than 100 nM. With `[2H]C([2H])(c1cnn(C)c1)N1C(=O)c2cc(S(=O)(=O)NC3(C)CC3)ccc2N2C1=NC[C@H]2C#Cc1cccnc1N` [Example 250, (R)-1-((2-aminopyridin-3-yl)ethynyl)-4-((1-methyl-1H-pyrazol-4-yl)methyl-d2)-N-(1-methylcyclopropyl)-5-oxo-1,2,4,5-tetrahydroimidazo[1,2-a]quinazoline-7-sulfonamide] the figure was less than 100 nM; with `[2H]C([2H])(c1cnn(C)c1)N1C(=O)c2cc(S(=O)(=O)NC3(C)CC3)ccc2N2C1=NC[C@H]2C#Cc1ncc(C)nc1C` [Example 251, (R)-1-((3,5-dimethylpyrazin-2-yl)ethynyl)-4-((1-methyl-1H-pyrazol-4-yl)methyl-d2)-N-(1-methylcyclopropyl)-5-oxo-1,2,4,5-tetrahydroimidazo[1,2-a]quinazoline-7-sulfonamide], less than 100 nM. With `[2H]C([2H])(c1cnn(C)c1)N1C(=O)c2cc(S(=O)(=O)NC3(C)CC3)ccc2N2C1=NC[C@H]2C#Cc1cncc(N)c1` [Example 252, (R)-1-((5-aminopyridin-3-yl)ethynyl)-4-((1-methyl-1H-pyrazol-4-yl)methyl-d2)-N-(1-methylcyclopropyl)-5-oxo-1,2,4,5-tetrahydroimidazo[1,2-a]quinazoline-7-sulfonamide] the figure was less than 100 nM.

Take `[2H]C([2H])(c1cnn(C)c1)N1C(=O)c2cc(S(=O)(=O)NC3(C)CC3)ccc2N2C1=NC[C@H]2C#Cc1cncc(N(C)C)c1` [Example 253, (R)-1-((5-(dimethylamino)pyridin-3-yl)ethynyl)-4-((1-methyl-1H-pyrazol-4-yl)methyl-d2)-N-(1-methylcyclopropyl)-5-oxo-1,2,4,5-tetrahydroimidazo[1,2-a]quinazoline-7-sulfonamide]: the IC50 is less than 100 nM. With `C=Cc1ccc(CN2C(=O)c3cc(S(=O)(=O)NC4(C)CC4)ccc3N3C2=NC[C@H]3C)cn1` [Example 254, (R)-1-methyl-N-(1-methylcyclopropyl)-5-oxo-4-((6-vinylpyridin-3-yl)methyl)-1,2,4,5-tetrahydroimidazo[1,2-a]quinazoline-7-sulfonamide] the figure was 100 to 1000 nM; with `C=Cc1cc(CN2C(=O)c3cc(S(=O)(=O)NC4(C)CC4)ccc3N3C2=NC[C@H]3C)ccn1` [Example 255, (R)-1-methyl-N-(1-methylcyclopropyl)-5-oxo-4-((2-vinylpyridin-4-yl)methyl)-1,2,4,5-tetrahydroimidazo[1,2-a]quinazoline-7-sulfonamide], less than 100 nM. As for `CN1CCC[C@@H]1C#C[C@@H]1CN=C2N(Cc3cnn(C)c3)C(=O)c3cc(S(=O)(=O)NC4(C)CC4)ccc3N21` [Example 256, (R)-4-((1-methyl-1H-pyrazol-4-yl)methyl)-N-(1-methylcyclopropyl)-1-(((R)-1-methylpyrrolidin-2-yl)ethynyl)-5-oxo-1,2,4,5-tetrahydroimidazo[1,2-a]quinazoline-7-sulfonamide], the figure is less than 100 nM; as for `CCN1C(=O)c2cc(S(=O)(=O)NC3(C)CC3)ccc2N2C1=NC[C@H]2C#Cc1nn(C)nc1C` [Example 257, (R)-1-((2,5-dimethyl-2H-1,2,3-triazol-4-yl)ethynyl)-4-ethyl-N-(1-methylcyclopropyl)-5-oxo-1,2,4,5-tetrahydroimidazo[1,2-a]quinazoline-7-sulfonamide], less than 100 nM. The molecule `[2H]C([2H])(c1cnn(C)c1)N1C(=O)c2cc(S(=O)(=O)NC3(C)CC3)ccc2N2C1=NC[C@H]2C#Cc1cnc(OC)nc1` [Example 259, (R)-1-((2-methoxypyrimidin-5-yl)ethynyl)-4-((1-methyl-1H-pyrazol-4-yl)methyl-d2)-N-(1-methylcyclopropyl)-5-oxo-1,2,4,5-tetrahydroimidazo[1,2-a]quinazoline-7-sulfonamide] gave an IC50 of less than 100 nM.

`[2H]C([2H])(c1cnn(C)c1)N1C(=O)c2cc(S(=O)(=O)NC3(C)CC3)ccc2N2C1=NC[C@H]2C#Cc1cccnn1` [Example 260, (R)-4-((1-methyl-1H-pyrazol-4-yl)methyl-d2)-N-(1-methylcyclopropyl)-5-oxo-1-(pyridazin-3-ylethynyl)-1,2,4,5-tetrahydroimidazo[1,2-a]quinazoline-7-sulfonamide] registered an IC50 of less than 100 nM.

Take `[2H]C([2H])(c1cnn(C)c1)N1C(=O)c2cc(S(=O)(=O)NC3(C)CC3)ccc2N2C1=NC[C@H]2C#Cc1cnc(C2CC2)nc1` [Example 261, (R)-1-((2-cyclopropylpyrimidin-5-yl)ethynyl)-4-((1-methyl-1H-pyrazol-4-yl)methyl-d2)-N-(1-methylcyclopropyl)-5-oxo-1,2,4,5-tetrahydroimidazo[1,2-a]quinazoline-7-sulfonamide]: the 50% inhibitory concentration (IC50) was less than 100 nM. For the molecule `[2H]C([2H])(c1cnn(C)c1)N1C(=O)c2cc(S(=O)(=O)NC3(C)CC3)ccc2N2C1=NC[C@H]2C#Cc1cncnc1OC` [Example 262, (R)-1-((4-methoxypyrimidin-5-yl)ethynyl)-4-((1-methyl-1H-pyrazol-4-yl)methyl-d2)-N-(1-methylcyclopropyl)-5-oxo-1,2,4,5-tetrahydroimidazo[1,2-a]quinazoline-7-sulfonamide], the IC50 is less than 100 nM.

In turn, `[2H]C([2H])(c1cnn(C)c1)N1C(=O)c2cc(S(=O)(=O)NC3(C)CC3)ccc2N2C1=NC[C@H]2C#Cc1cncnc1NC` [Example 263, (R)-4-((1-methyl-1H-pyrazol-4-yl)methyl-d2)-1-((4-(methylamino)pyrimidin-5-yl)ethynyl)-N-(1-methylcyclopropyl)-5-oxo-1,2,4,5-tetrahydroimidazo[1,2-a]quinazoline-7-sulfonamide] came in with an IC50 of less than 100 nM.

Regarding `CCN1C(=O)c2cc(S(=O)(=O)NC3(C)CC3)c(F)cc2N2C1=N[C@H]1CCC[C@H]12` [Example 264, (7aS,10aR)-6-ethyl-2-fluoro-N-(1-methylcyclopropyl)-5-oxo-6,7a,8,9,10,10a-hexahydro-5H-cyclopenta[4,5]imidazo[1,2-a]quinazoline-3-sulfonamide], the half-maximal inhibitory concentration (IC50) was less than 100 nM. As for `CCN1C(=O)c2cc(S(=O)(=O)NC3(C)CC3)ccc2N2C1=NC[C@H]2C#Cc1cn(C)nc1C` [Example 265, (R)-1-((1,3-dimethyl-1H-pyrazol-4-yl)ethynyl)-4-ethyl-N-(1-methylcyclopropyl)-5-oxo-1,2,4,5-tetrahydroimidazo[1,2-a]quinazoline-7-sulfonamide], the IC50 was less than 100 nM.

In turn, `[2H]C([2H])(c1cnn(C)c1)N1C(=O)c2cc(S(=O)(=O)NC3(C)CC3)ccc2N2C1=NC[C@H]2C#Cc1nn(C)nc1C` [Example 266, (R)-1-((2,5-dimethyl-2H-1,2,3-triazol-4-yl)ethynyl)-4-((1-methyl-1H-pyrazol-4-yl)methyl-d2)-N-(1-methylcyclopropyl)-5-oxo-1,2,4,5-tetrahydroimidazo[1,2-a]quinazoline-7-sulfonamide] registered an IC50 of less than 100 nM.
